Experimental findings from patent US8404708B2, “Dual NK1/NK3 receptor antagonists” (Hoffmann-La Roche Inc., priority 2004, dated 2013) are described below.

For one test, the target named is human NK1 receptor (Homo sapiens, UniProt P25103). Description: NK1 receptor binding, [3H]substance P displacement, CHO cell membranes.
In test [1] the target is T1, Recombinant human NK3 (hNK3) receptor (Homo sapiens, UniProt P29371).
T1 construct: expressed in transfected cells
T1 sequence (P29371 1-465): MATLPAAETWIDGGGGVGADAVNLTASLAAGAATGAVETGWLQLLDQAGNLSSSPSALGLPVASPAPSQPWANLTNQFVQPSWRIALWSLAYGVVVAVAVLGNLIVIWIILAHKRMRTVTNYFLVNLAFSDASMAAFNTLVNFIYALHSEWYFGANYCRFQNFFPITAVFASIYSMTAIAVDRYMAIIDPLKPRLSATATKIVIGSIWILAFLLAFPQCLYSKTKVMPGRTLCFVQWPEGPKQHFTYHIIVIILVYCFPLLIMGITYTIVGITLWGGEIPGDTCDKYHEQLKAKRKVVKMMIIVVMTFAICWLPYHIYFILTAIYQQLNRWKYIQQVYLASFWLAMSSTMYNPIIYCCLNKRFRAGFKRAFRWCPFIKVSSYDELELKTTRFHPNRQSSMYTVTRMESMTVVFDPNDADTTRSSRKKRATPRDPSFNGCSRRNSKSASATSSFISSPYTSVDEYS
The test is described as follows: NK3 receptor binding, [3H]SR142801 displacement, membrane preparations. A digest of the protocol: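 Incubation ran 90 min at room temperature in 50 mM Tris-HCl pH 7.4 with 0.1% BSA, 4 mM MnCl2 and 1 μM phosphoramidon, using about 2.5 μg hNK3 membrane protein per well. Nonspecific binding was defined with 10 μM SB222200, and bound radioactivity was collected on PEI-soaked GF/C filters for scintillation counting.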

Setting [2] is: first value of the cell pKi NK1/NK3, human NK1 receptor, [3H]substance P.
The mark [3] stands for this setting: second value of the cell pKi NK1/NK3, hNK3 receptor, [3H]SR142801.
The mark [4] stands for this setting: first value of the cell NK1/NK3, read-out: pKi NK1 (converted).
The mark [5] stands for this setting: second value of the cell NK1/NK3, read-out: pKi NK3 (converted).

Like-named read-outs stand apart in the source and are kept apart here.

Chain of human NK1 receptor (P25103 whole entry): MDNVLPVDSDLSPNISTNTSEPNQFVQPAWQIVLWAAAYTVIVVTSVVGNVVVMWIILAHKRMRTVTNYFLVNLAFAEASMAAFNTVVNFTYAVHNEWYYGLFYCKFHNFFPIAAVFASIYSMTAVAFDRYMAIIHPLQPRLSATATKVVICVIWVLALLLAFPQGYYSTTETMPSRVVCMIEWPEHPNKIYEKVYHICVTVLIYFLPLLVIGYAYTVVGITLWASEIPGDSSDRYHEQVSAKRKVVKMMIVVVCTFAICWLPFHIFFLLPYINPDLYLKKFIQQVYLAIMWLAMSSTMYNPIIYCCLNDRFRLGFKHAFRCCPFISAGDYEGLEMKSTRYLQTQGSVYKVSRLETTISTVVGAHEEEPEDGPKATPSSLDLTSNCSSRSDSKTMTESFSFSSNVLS

Regarding `Cc1cc(F)ccc1-c1cc(N2CCC[C@H]2CO)ncc1N(C)C(=O)C(C)(C)c1cc(F)cc(C(F)(F)F)c1` [Example 24, (S)-N-[4-(4-Fluoro-2-methyl-phenyl)-6-(2-hydroxymethyl-pyrrolidin-1-yl)-pyridin-3-yl]-2-(3-fluoro-5-trifluoromethyl-phenyl)-N-methyl-isobutyramide], the Ki on human NK1 receptor (setting [2]) is 1.32 nM; in test [1] (setting [3]) it was 0.891 nM.
Regarding `CN(C(=O)C(C)(C)c1cc(C(F)(F)F)cc(C(F)(F)F)c1)c1cnc(N2CCC[C@H]2CN2CCCC2)cc1-c1ccccc1Cl` [Example 64, (S)-2-(3,5-Bis-trifluoromethyl-phenyl)-N-[4-(2-chloro-phenyl)-6-(−2-pyrrolidin-1-ylmethyl-pyrrolidin-1-yl)-pyridin-3-yl]-N-methyl-isobutyramide], the figures for the Ki (on human NK1 receptor (setting [2]); in test [1] (setting [3])) were 1 nM and 2.88 nM, respectively.
Take `Cc1ccccc1-c1cc(N2C[C@@H](O)C[C@H]2CO)ncc1N(C)C(=O)C(C)(C)c1cc(C(F)(F)F)cc(C(F)(F)F)c1` [Example 241, (2S,4S)-2-(3,5-Bis-trifluoromethyl-phenyl)-N-[6-(4-hydroxy-2-hydroxymethyl-pyrrolidin-1-yl)-4-o-tolyl-pyridin-3-yl]-N-methyl-isobutyramide]: the values for the Ki (at human NK1 receptor (setting [4]); in test [1] (setting [5])) were 1.45 nM and 1.62 nM, respectively.
For `Cc1ncccc1-c1cc(N2CC[C@H](O)[C@H]2CO)ncc1N(C)C(=O)C(C)(C)c1cc(C(F)(F)F)cc(C(F)(F)F)c1` [Example 278, (2R,3S)-2-(3,5-Bis-trifluoromethyl-phenyl)-N-[6′-(3-hydroxy-2-hydroxymethyl-pyrrolidin-1-yl)-2-methyl-[3,4′]bipyridinyl-3′-yl]-N-methyl-isobutyramide], in that order: 0.813 nM and 2.69 nM.
In the case of `COc1ccc(-c2cc(N3C[C@H](O)C[C@H]3CO)ncc2N(C)C(=O)C(C)(C)c2cc(C(F)(F)F)cc(C(F)(F)F)c2)c(OC)n1` [Example 231, (2S,4R)-2-(3,5-Bis-trifluoromethyl-phenyl)-N-[6′-(4-hydroxy-2-hydroxymethyl-pyrrolidin-1-yl)-2,6-dimethoxy-[3,4′]bipyridinyl-3′-yl]-N-methyl-isobutyramide], the Ki at human NK1 receptor (setting [4]) was 2.45 nM; in test [1] (setting [5]), 14.1 nM.
Taken in the same sequence, the figures for `CN(C(=O)C(C)(C)c1cc(C(F)(F)F)cc(C(F)(F)F)c1)c1cnc(N2CCC[C@H]2CO)cc1-c1cc(Cl)ccc1Cl` [Example 284, (S)-2-(3,5-Bis-trifluoromethyl-phenyl)-N-[4-(2,5-dichloro-phenyl)-6-(2-hydroxymethyl-pyrrolidin-1-yl)-pyridin-3-yl]-N-methyl-isobutyramide] were 1.48 nM and 1.45 nM.
For `Cc1cc(F)ccc1-c1cc(N2C[C@@H](F)C[C@H]2CO)ncc1N(C)C(=O)C(C)(C)c1cc(C(F)(F)F)cc(C(F)(F)F)c1` [Example 298, (2S,4S)-2-(3,5-Bis-trifluoromethyl-phenyl)-N-[6-(4-fluoro-2-hydroxymethyl-pyrrolidin-1-yl)-4-(4-fluoro-2-methyl-phenyl)-pyridin-3-yl]-N-methyl-isobutyramide], the Ki at human NK1 receptor (setting [4]) was 1.55 nM. Further, the pKi NK3 in test [1] (second value of the cell NK1/NK3) was 9.15.
Take `CN(C(=O)C(C)(C)c1cc(C(F)(F)F)cc(C(F)(F)F)c1)c1cnc(N2CC[C@H](O)[C@H]2CO)cc1-c1cc(Cl)ccc1Cl` [Example 270, (2R,3S)-2-(3,5-Bis-trifluoromethyl-phenyl)-N-[4-(2,5-dichloro-phenyl)-6-(3-hydroxy-2-hydroxymethyl-pyrrolidin-1-yl)-pyridin-3-yl]-N-methyl-isobutyramide]: the Ki was 2.63 nM at human NK1 receptor (setting [4]) and 2.19 nM in test [1] (setting [5]).
Take `Cc1ccncc1-c1cc(N(C)CCO)ncc1N(C)C(=O)C(C)(C)c1cc(C(F)(F)F)cc(C(F)(F)F)c1` [Example 294, 2-(3,5-Bis-trifluoromethyl-phenyl)-N-{6′-[(2-hydroxy-ethyl)-methyl-amino]-4-methyl-[3,4′]bipyridinyl-3′-yl}-N-methyl-isobutyramide]: the Ki on human NK1 receptor (setting [4]) was 5.13 nM; in test [1] (setting [5]) it was 4.27 nM.
With `Cc1cc(C)cc(C(C)(C)C(=O)N(C)c2cnc(N3CCC[C@H]3CO)cc2-c2ccccc2C)c1` [Example 19, (S)-2-(3,5-Dimethyl-phenyl)-N-[6-(2-hydroxymethyl-pyrrolidin-1-yl)-4-o-tolyl-pyridin-3-yl]-N-methyl-isobutyramide], the values for the Ki (at human NK1 receptor (setting [2]); in test [1] (setting [3])) were 2.95 nM and 5.13 nM, respectively.
For `Cc1cc(F)ccc1-c1cc(NC[C@H](C)O)ncc1N(C)C(=O)C(C)(C)c1cc(C(F)(F)F)cc(C(F)(F)F)c1` [Example 77, (S)-2-(3,5-Bis-trifluoromethyl-phenyl)-N-[4-(4-fluoro-2-methyl-phenyl)-6-(2-hydroxy-propylamino)-pyridin-3-yl]-N-methyl-isobutyramide], in that order: 0.646 nM and 4.79 nM.
For `CCN(CCO)c1cc(-c2ccc(F)cc2)c(N(C)C(=O)C(C)(C)c2cc(C(F)(F)F)cc(C(F)(F)F)c2)cn1` [Example 116, 2-(3,5-Bis-trifluoromethyl-phenyl)-N-[6-[ethyl-(2-hydroxy-ethyl)-amino]-4-(4-fluoro-phenyl)-pyridin-3-yl]-N-methyl-isobutyramide], the Ki was 3.89 nM at human NK1 receptor (setting [2]) and 32.4 nM in test [1] (setting [3]).
Consider `CN(C(=O)C(C)(C)c1cc(C(F)(F)F)cc(C(F)(F)F)c1)c1cnc(N[C@H]2CC[C@H](O)CC2)cc1-c1ccccc1Cl` [Example 60, trans-2-(3,5-Bis-trifluoromethyl-phenyl)-N-[4-(2-chloro-phenyl)-6-(4-hydroxy-cyclohexylamino)-pyridin-3-yl]-N-methyl-isobutyramide], for which the Ki at human NK1 receptor (setting [2]) was 1.26 nM; in test [1] (setting [3]), 7.94 nM.
`Cc1ccccc1-c1cc(N2CCC(CO)CC2)ncc1N(C)C(=O)C(C)(C)c1cc(C(F)(F)F)cc(C(F)(F)F)c1` [Example 172, 2-(3,5-Bis-trifluoromethyl-phenyl)-N-(4-hydroxymethyl-4′-o-tolyl-3,4,5,6-tetrahydro-2H-[1,2′]bipyridinyl-5′-yl)-N-methyl-isobutyramide]: the Ki was 7.08 nM at human NK1 receptor (setting [2]) and 12.9 nM in test [1] (setting [3]).
Take `CN(C(=O)C(C)(C)c1cc(C(F)(F)F)cc(C(F)(F)F)c1)c1cnc(N2C[C@@H](O)C[C@H]2CO)cc1-c1ccc(F)cc1Cl` [Example 235, (2S,4S)-2-(3,5-Bis-trifluoromethyl-phenyl)-N-[4-(2-chloro-4-fluoro-phenyl)-6-(4-hydroxy-2-hydroxymethyl-pyrrolidin-1-yl)-pyridin-3-yl]-N-methyl-isobutyramide]: the Ki on human NK1 receptor (setting [4]) was 1.66 nM; in test [1] (setting [5]), 1.26 nM.
`CCN(C(C)=O)[C@H]1CCN(c2cc(-c3ccc(F)cc3C)c(N(C)C(=O)C(C)(C)c3cc(C(F)(F)F)cc(C(F)(F)F)c3)cn2)C1` [Example 108, (S)-N-[6-[3-(Acetyl-ethyl-amino)-pyrrolidin-1-yl]-4-(4-fluoro-2-methyl-phenyl)-pyridin-3-yl]-2-(3,5-bis-trifluoromethyl-phenyl)-N-methyl-isobutyramide]: the Ki was 2.45 nM at human NK1 receptor (setting [2]) and 8.91 nM in test [1] (setting [3]).
Taken in the same sequence, the figures for `C[C@H](O)CNc1cc(-c2ccccc2Br)c(N(C)C(=O)C(C)(C)c2cc(C(F)(F)F)cc(C(F)(F)F)c2)cn1` [Example 131, (S)-2-(3,5-Bis-trifluoromethyl-phenyl)-N-[4-(2-bromo-phenyl)-6-(2-hydroxy-propylamino)-pyridin-3-yl]-N-methyl-isobutyramide] were 1.07 nM and 4.27 nM.
For `Cc1cc(F)ccc1-c1cc(N2C[C@@H](O)C[C@H]2CO)ncc1N(C)C(=O)C(C)(C)c1cc(C(F)(F)F)cc(C(F)(F)F)c1` [Example 238, (2S,4S)-2-(3,5-Bis-trifluoromethyl-phenyl)-N-[4-(4-fluoro-2-methyl-phenyl)-6-(4-hydroxy-2-hydroxymethyl-pyrrolidin-1-yl)-pyridin-3-yl]-N-methyl-isobutyramide], the Ki was 1.23 nM on human NK1 receptor (setting [4]) and 1.02 nM in test [1] (setting [5]).
With `CN(C(=O)C(C)(C)c1cc(C(F)(F)F)cc(C(F)(F)F)c1)c1cnc(N2C[C@@H](O)C[C@H]2CO)cc1-c1ccc(F)cc1C=O` [Example 239, (2S,4S)-2-(3,5-Bis-trifluoromethyl-phenyl)-N-[4-(4-fluoro-2-formyl-phenyl)-6-(4-hydroxy-2-hydroxymethyl-pyrrolidin-1-yl)-pyridin-3-yl]-N-methyl-isobutyramide], the Ki was 1.62 nM on human NK1 receptor (setting [4]) and 1.48 nM in test [1] (setting [5]).
As to `Cc1cc(F)ccc1-c1cc(N2CCC[C@H]2CN2CCCC2)ncc1N(C)C(=O)C(C)(C)c1cc(C(F)(F)F)cc(C(F)(F)F)c1` [Example 169, (S)-2-(3,5-Bis-trifluoromethyl-phenyl)-N-[4-(4-fluoro-2-methyl-phenyl)-6-(2-pyrrolidin-1-ylmethyl-pyrrolidin-1-yl)-pyridin-3-yl]-N-methyl-isobutyramide], the results for the Ki (on human NK1 receptor (setting [2]); in test [1] (setting [3])) were 1.41 nM and 21.4 nM, respectively.
